In patent US20100137313A1 (ASTRAZENECA AB, priority 2008, published 2010):

target: S. pneumoniae Topoisomerase IV ATPase (ParE) (Streptococcus pneumoniae serotype 4, UniProt Q59961); assay: S. pneumoniae Topoisomerase IV ATPase inhibition; assay type: biochemical; conditions: values marked * are an average of two or more data points
Method in brief: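 Phosphate release by ParE ATPase from S. pneumoniae read colorimetrically (malachite green, 650 nm), enzyme 1.25 nM, ATP 160 μM, salmon sperm DNA present, buffer 20 mM Tris pH 8.0 with 8 mM MgCl2. IC50 over 10 compound concentrations, EDTA (20 μM) and DMSO controls defining inhibition range.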

Sequence of S. pneumoniae Topoisomerase IV ATPase (ParE) (Q59961 whole entry): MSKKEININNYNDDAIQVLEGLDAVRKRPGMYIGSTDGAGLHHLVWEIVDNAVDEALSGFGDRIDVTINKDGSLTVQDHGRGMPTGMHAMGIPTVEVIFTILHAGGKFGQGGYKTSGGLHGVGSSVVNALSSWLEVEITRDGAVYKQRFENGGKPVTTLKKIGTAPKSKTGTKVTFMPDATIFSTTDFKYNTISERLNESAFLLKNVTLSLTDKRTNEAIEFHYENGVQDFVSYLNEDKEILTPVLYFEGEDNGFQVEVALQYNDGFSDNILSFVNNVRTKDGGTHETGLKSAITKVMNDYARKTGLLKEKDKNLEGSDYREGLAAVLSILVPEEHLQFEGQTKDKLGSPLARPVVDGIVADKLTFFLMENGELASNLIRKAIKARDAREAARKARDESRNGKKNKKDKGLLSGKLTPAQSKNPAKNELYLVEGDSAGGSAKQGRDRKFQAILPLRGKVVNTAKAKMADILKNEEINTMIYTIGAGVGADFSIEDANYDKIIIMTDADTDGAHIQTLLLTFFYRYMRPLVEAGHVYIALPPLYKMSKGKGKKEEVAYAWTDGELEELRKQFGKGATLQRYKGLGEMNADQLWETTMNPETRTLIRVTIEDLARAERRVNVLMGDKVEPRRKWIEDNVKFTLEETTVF

Row | Structure (SMILES) | % Inh (13 μM) of S. pneumoniae Topoisomerase IV ATPase [%]
1 | O=C(O)[C@@H]1C[C@H]1c1cccc(-c2cnc(Nc3ccc(F)c(Cl)c3)nc2-n2ccc(C(F)(F)F)n2)c1 [Example 575, (1R,2R)-2-(3-(2-(3-chloro-4-fluorophenvlamino)-4-(3-(trifluoromethyl)-1H-pyrazol-1-yl)pyrimidin-5-yl)phenyl)cyclopropanecarboxylic acid] | 100
2 | O=C(O)[C@H]1C[C@H]1c1cccc(-c2cnc(Nc3ccc(F)c(Cl)c3)nc2-n2ccc(C(F)(F)F)n2)c1 [Example 576, (1S,2R)-2-(3-(2-(3-chloro-4-fluorophenvlamino)-4-(3-(trifluoromethyl)-1H-pyrazol-1-yl)pyrimidin-5-yl)phenyl)cyclopropanecarboxylic acid] | 100

same assay, conditions: values marked * are an average of two or more data points, read-out: % Inh (13 μM) of S. pneumoniae Topoisomerase IV ATPase

Row | Structure (SMILES) | inhibition at 13 µM [%]
3 | CC1(C)[C@@H](C(=O)O)[C@@H]1c1cccc(-c2cnc(Nc3ccc(F)c(Cl)c3)nc2-n2ccc(C(F)(F)F)n2)c1 [Example 572, (1,3-trans)-3-(3-(2-(3-chloro-4-fluorophenylamino)-4-(3-(trifluoromethyl)-1H-pyrazol-1-yl)pyrimidin-5-yl)phenyl)-2,2-dimethylcyclopropanecarboxylic acid] | 100
4 | O=C(O)[C@@H]1C[C@H]1c1cncc(-c2cnc(Nc3ccc(F)c(Cl)c3)nc2-n2ccc(C(F)(F)F)n2)c1 [Example 573, (1,2-trans)-2-(5-(2-(3-chloro-4-fluorophenvlamino)-4-(3-(trifluoromethyl)-1H-pyrazol-1-yl)pyrimidin-5-yl)pyridin-3-yl)cyclopropanecarboxylic acid] | 100
5 | COc1cc(Nc2ncc(-c3cnc(NCCS(C)(=O)=O)c(C(=O)O)c3)c(-n3ccc(C(F)(F)F)n3)n2)cc(OC)c1 [Example 585, 5-(2-(3,5-dimethoxyphenylamino)-4-(3-(trifluoromethyl)-1H-pyrazol-1-yl)pyrimidin-5-yl)-2-(2-(methylsulfonyl)ethylamino)nicotinic acid] | 100
6 | CNc1ncc(-c2cnc(Nc3cc(OC)cc(OC)c3)nc2-n2ccc(C(F)(F)F)n2)cc1C(=O)O [Example 586, 5-(2-(3,5-dimethoxyphenylamino)-4-(3-(trifluoromethyl)-1H-pyrazol-1-yl)pyrimidin-5-yl)-2-(methylamino)nicotinic acid] | 100
7 | COc1cc(Nc2ncc(-c3cnc(N(C)C)c(C(=O)O)c3)c(-n3ccc(C(F)(F)F)n3)n2)cc(OC)c1 [Example 587, 5-(2-(3,5-dimethoxyphenylamino)-4-(3-(trifluoromethyl)-1H-pyrazol-1-yl)pyrimidin-5-yl)-2-(dimethylamino)nicotinic acid] | 100
8 | COc1cc(Nc2ncc(-c3cnc(-n4cncn4)c(C(=O)O)c3)c(-n3ccc(C(F)(F)F)n3)n2)cc(OC)c1 [Example 588, 5-(2-(3,5-dimethoxyphenylamino)-4-(3-(trifluoromethyl)-1H-pyrazol-1-yl)pyrimidin-5-yl)-2-(1H-1,2,4-triazol-1-yl)nicotinic acid] | 100
9 | COc1cc(Nc2ncc(-c3cnc(-n4cccn4)c(C(=O)O)c3)c(-n3ccc(C(F)(F)F)n3)n2)cc(OC)c1 [Example 589, 5-(2-(3,5-dimethoxyphenylamino)-4-(3-(trifluoromethyl)-1H-pyrazol-1-yl)pyrimidin-5-yl)-2-(1H-pyrazol-1-yl)nicotinic acid] | 100
10 | COc1cc(Nc2ncc(-c3cnc(-n4ccnc4)c(C(=O)O)c3)c(-n3ccc(C(F)(F)F)n3)n2)cc(OC)c1 [Example 590, 5-(2-(3,5-dimethoxyphenylamino)-4-(3-(trifluoromethyl)-1H-pyrazol-1-yl)pyrimidin-5-yl)-2-(1H-imidazol-1-yl)nicotinic acid] | 100
11 | CNc1ncc(-c2cnc(Nc3cc(OC)cc(OC)c3)nc2-n2nc(C(F)(F)F)cc2C)cc1C(=O)O [Example 591, 5-(2-(3,5-dimethoxyphenylamino)-4-(5-methyl-3-(trifluoromethyl)-1H-pyrazol-1-yl)pyrimidin-5-yl)-2-(methylamino)nicotinic acid] | 100
12 | COc1cc(Nc2ncc(-c3cc(C(=O)O)cn(C)c3=O)c(-n3ccc(C(F)(F)F)n3)n2)cc(OC)c1 [Example 592, 5-(2-(3,5-dimethoxyphenylamino)-4-(3-(trifluoromethyl)-1H-pyrazol-1-yl)pyrimidin-5-yl)-1-methyl-6-oxo-1,6-dihydropyridine-3-carboxylic acid] | 100
13 | CN(CC(=O)O)c1cccc(-c2cnc(Nc3ccc(F)c(Cl)c3)nc2-n2ccc(C(F)(F)F)n2)c1 [Example 598, N-(3-{2-[(3-chloro-4-fluorophenyl)amino]-4-[3-(trifluoromethyl)-1H-pyrazol-1-yl]pyrimidin-5-yl}phenyl)-N-methylglycine] | 82
14 | O=C(O)[C@@H]1CCCN1c1cccc(-c2cnc(Nc3ccc(F)c(Cl)c3)nc2-n2ccc(C(F)(F)F)n2)c1 [Example 599, 1-(3-{2-[(3-chloro-4-fluorophenyl)amino]-4-[3-(trifluoromethyl)-1H-pyrazol-1-yl]pyrimidin-5-yl}phenyl)-L-proline] | 94
15 | O=C(O)[C@H]1CCCN1c1cccc(-c2cnc(Nc3ccc(F)c(Cl)c3)nc2-n2ccc(C(F)(F)F)n2)c1 [Example 600, 1-(3-{2-[(3-chloro-4-fluorophenyl)amino]-4-[3-(trifluoromethyl)-1H-pyrazol-1-yl]pyrimidin-5-yl}phenyl)-D-proline] | 100
16 | O=C(O)C1CCCN(c2cccc(-c3cnc(Nc4ccc(F)c(Cl)c4)nc3-n3ccc(C(F)(F)F)n3)c2)C1 (stereo not shown) [Example 601, 1-(3-{2-[(3-chloro-4-fluorophenyl)amino]-4-[3-(trifluoromethyl)-1H-pyrazol-1-yl]pyrimidin-5-yl}phenyl)piperidine-3-carboxylic acid] | 100
17 | O=C(O)C1CCCCN1c1cccc(-c2cnc(Nc3ccc(F)c(Cl)c3)nc2-n2ccc(C(F)(F)F)n2)c1 (stereo not shown) [Example 602, 1-(3-{2-[(3-chloro-4-fluorophenyl)amino]-4-[3-(trifluoromethyl)-1H-pyrazol-1-yl]pyrimidin-5-yl}phenyl)piperidine-2-carboxylic acid] | 100
18 | O=C(O)C1CCN(c2cccc(-c3cnc(Nc4ccc(F)c(Cl)c4)nc3-n3ccc(C(F)(F)F)n3)c2)C1 (stereo not shown) [Example 604, 1-(3-{2-[(3-chloro-4-fluorophenyl)amino]-4-[3-(trifluoromethyl)-1H-pyrazol-1-yl]pyrimidin-5-yl}phenyl)pyrrolidine-3-carboxylic acid] | 100
19 | COc1cc(Nc2ncc(-c3cccc(/C=C/C(=O)O)c3)c(-n3ccc(C(F)(F)F)n3)n2)cc(OC)c1 [Example 615, (2E)-3-(3-{2-[(3,5-dimethoxyphenyl)amino]-4-[3-(trifluoromethyl)-1H-pyrazol-1-yl]pyrimidin-5-yl}phenyl)prop-2-enoic acid] | 100
20 | COc1cc(Nc2ncc(-c3cccc(/C=C/C(=O)O)c3)c(-n3nc(C(F)(F)F)cc3C)n2)cc(OC)c1 [Example 616, (2E)-3-(3-{2-[(3,5-dimethoxyphenyl)amino]-4-[5-methyl-3-(trifluoromethyl)-1H-pyrazol-1-yl]pyrimidin-5-yl}phenyl)prop-2-enoic acid] | 99
21 | Cc1cc(C)cc(Nc2ncc(-c3cccc(/C=C/C(=O)O)c3)c(-n3ccc(C(F)(F)F)n3)n2)c1 [Example 617, (2E)-3-(3-{2-[(3,5-dimethylphenyl)amino]-4-[3-(trifluoromethyl)-1H-pyrazol-1-yl]pyrimidin-5-yl}phenyl)prop-2-enoic acid] | 100
22 | Cc1cc(C)cc(Nc2ncc(-c3cccc(/C=C/C(=O)O)c3)c(-n3nc(C(F)(F)F)cc3C)n2)c1 [Example 618, (2E)-3-(3-{2-[(3,5-dimethylphenyl)amino]-4-[5-methyl-3-(trifluoromethyl)-1H-pyrazol-1-yl]pyrimidin-5-yl}phenyl)prop-2-enoic acid] | 98
23 | O=C(O)/C=C/c1cccc(-c2cnc(Nc3cc(F)cc(F)c3)nc2-n2ccc(C(F)(F)F)n2)c1 [Example 619, (2E)-3-(3-{2-[(3,5-difluorophenyl)amino]-4-[3-(trifluoromethyl)-1H-pyrazol-1-yl]pyrimidin-5-yl}phenyl)prop-2-enoic acid] | 100
24 | Cc1cc(C(F)(F)F)nn1-c1nc(Nc2cc(F)cc(F)c2)ncc1-c1cccc(/C=C/C(=O)O)c1 [Example 620, (2E)-3-(3-{2-[(3,5-difluorophenyl)amino]-4-[5-methyl-3-(trifluoromethyl)-1H-pyrazol-1-yl]pyrimidin-5-yl}phenyl)prop-2-enoic acid] | 96
25 | O=C(O)/C=C/c1cccc(-c2cnc(Nc3cccc(F)c3)nc2-n2ccc(C(F)(F)F)n2)c1 [Example 621, (2E)-3-(3-{2-[(3-fluorophenyl)amino]-4-[3-(trifluoromethyl)-1H-pyrazol-1-yl]pyrimidin-5-yl}phenyl)prop-2-enoic acid] | 100
26 | Cc1cc(C(F)(F)F)nn1-c1nc(Nc2cccc(F)c2)ncc1-c1cccc(/C=C/C(=O)O)c1 [Example 622, (2E)-3-(3-{2-[(3-fluorophenyl)amino]-4-[5-methyl-3-(trifluoromethyl)-1H-pyrazol-1-yl]pyrimidin-5-yl}phenyl)prop-2-enoic acid] | 98
27 | CS(=O)(=O)c1cccc(Nc2ncc(-c3cccc(/C=C/C(=O)O)c3)c(-n3ccc(C(F)(F)F)n3)n2)c1 [Example 623, (2E)-3-[3-(2-{[3-(methylsulfonyl)phenyl]amino}-4-[3-(trifluoromethyl)-1H-pyrazol-1-yl]pyrimidin-5-yl)phenyl]prop-2-enoic acid] | 100
28 | Cc1cc(C(F)(F)F)nn1-c1nc(Nc2cccc(S(C)(=O)=O)c2)ncc1-c1cccc(/C=C/C(=O)O)c1 [Example 624, (2E)-3-[3-(2-{[3-(methylsulfonyl)phenyl]amino}-4-[5-methyl-3-(trifluoromethyl)-1H-pyrazol-1-yl]pyrimidin-5-yl)phenyl]prop-2-enoic acid] | 89
